The record followed here is patent US10201158B2, “Plant disease control composition and method for controlling plant disease by application of same” (MITSUI CHEMICALS AGRO, INC., priority 2014, dated 2019).

Where “and” joins values, the source holds several entries; their conditions need not be identical. Equal values may be shown once. Read-outs that look alike come from different tables or passages of the source.

The test system of one assay is Botrytis cinerea. The conditions noted are these: in vivo.
Assay [1] concerns Pseudoperonospora cubensis. Briefly: Cucumber downy mildew preventive test. The settings on record: Table 8; treatment concentration 10 ppm; 7 days after inoculation. The assay is classed as in vivo. Here is the method: In a greenhouse, cucumber (variety: Sagamihanshiro) planted in a plastic pot having a diameter of 5 cm was grown to the 3rd to 5th-leaf stage. Spray was carried out in the same manner as in Test example 1, and after drying the chemical liquid, the pots were transferred into a greenhouse. After 3 days from the spray, a zoosporangium suspension of Pseudoperonospora cubensis was inoculated. After inoculation, the pots were placed in a high-humidity chamber (20 to 25° C.), transferred into a greenhouse on the next day, and controlling effects were examined after 7 days from the inoculation. A ratio of lesion area occupied per one leaf of cucumber was determined according to the same index as in Test example 1, and the control value and the theoretical value according to Colby's formula were similarly calculated.

Another assay relates to Phytophthora infestans. The assay is classed as in vivo. The conditions noted are these: treatment concentration 10 ppm, 5 days after inoculation.
The subject of the next assay is Sphaerotheca fuliginea. Briefly: Cucumber powdery mildew preventive test. The assay is classed as in vivo. The conditions noted are these: in vivo. The gist of the method:
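Potted cucumber at 3rd–5th-leaf stage sprayed with wettable powder formulations, then inoculated 3 days later with Sphaerotheca fuliginea conidia and kept at 20 to 25° C. Lesion area per leaf scored 7 days after inoculation; control values and Colby theoretical values calculated.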

Another assay deals with Blumeria graminis. Briefly: Barley powdery mildew preventive test. The assay is classed as in vivo. The conditions noted are these: Table 4; treatment concentration 10 ppm; 8 days after inoculation. On the procedure: Barley plants (variety: Akashinriki) planted in plastic pots having a diameter of 5 cm were grown indoors to the second to fourth leaf stage. Wettable powder containing the compounds indicated in Table 4 were sprayed in the same manner as in Test Example 1, and after the chemical had dried, conidia of Blumeria graminis was inoculated onto the leaves. Following inoculation, the pots were transferred to a constant-temperature chamber (20° C. to 25° C.), and control effects were examined 8 days after inoculation.

For a further assay, the system named is Puccinia recondita. The assay can be described thus: Wheat brown rust preventive test. The assay is classed as in vivo. The settings on record: Table 5; treatment concentration 10 ppm; 8 days after inoculation. Here is the method: Wheat plants (variety: Norin 61 gou) planted in plastic pots having a diameter of 5 cm were grown indoors to the second to fourth leaf stage. Wettable powder containing the compounds indicated in Table 5 were sprayed in the same manner as in Test Example 1, and after the chemical had dried, a conidia suspension of Puccinia recondita was inoculated onto the leaves. Following inoculation, the pots were placed in the humidified chamber of an artificial inoculation room (20° C. to 23° C.), removed on the following day and then transferred to a greenhouse. Control effects were examined 8 days after inoculation. During the examination, the number of lesions on five leaves of the wheat plants was determined in accordance with the following incidence degree indicators, and control values and theoretical values as determined according to Colby's formula were calculated in the same manner as in Test Example 1.

In another assay the test system is Pyricularia oryzae. The assay is classed as in vivo. The conditions noted are these: treatment concentration 10 ppm.

For `CC1(C)N=C(c2cnc3ccccc3c2)c2cccc(F)c2C1(C)C` [Compound A, 3-(5-fluoro-3,3,4,4-tetramethyl-3,4-dihydroisoquinolin-1-yl)quinoline], the Control value with Botrytis cinerea is 64; in the assay with Phytophthora infestans (Table 6-1), 8; in the assay on Sphaerotheca fuliginea, 33 and 17; in the assay with Blumeria graminis, 6; in the assay with Puccinia recondita, 11; in the assay with Pyricularia oryzae (Table 3-1), 67. For the same compound, the Preventive value was 77 and 70 and 73 and 67 and 40 with Botrytis cinerea; 27 in assay [1]; 33 with Phytophthora infestans (Table 6-2); 47 in the assay on Phytophthora infestans (Table 6-3); 40 in the assay with Sphaerotheca fuliginea; 73 in the assay with Pyricularia oryzae (Table 3-2). Besides, the Preventive value was 73 in the assay with Pyricularia oryzae (Table 3-3), 67 in the assay on Pyricularia oryzae (Table 3-4) and 67 in the assay on Pyricularia oryzae (Table 3-5 (Comparative Example 2)).
